Experimental findings from patent US12351581B2, “Compounds for FGFR inhibition” (Cogent Biosciences, Inc., priority 2023, dated 2025) are described below.

One assay has as its target FGFR2-WT (Homo sapiens, UniProt P21802). The experiment in a line: Phosphorylated FGFR2-WT (pFGFR2-WT) cell assay, KATOIII cells. It counts as cell-based. The settings on record: 1 hour incubation, phospho FGFR2 HTRF. Summed up:
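KATOIII cells treated 1 h at 37 °C with threefold compound dilutions (10 μM to 0.5 nM). Lysate phospho-FGFR2 (Tyr653/654) read by HTRF.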
A general note: Time-resolved FRET reads energy transfer from a long-lived donor to a nearby acceptor.

The next assay deals with T1, FGFR2 (Homo sapiens, UniProt P21802).
T1 construct: biochemical assays using purified intracellular domains of the respective isoforms; purchased Carna Bioscience 08-134
T1 sequence (P21802 399-821 limits assumed): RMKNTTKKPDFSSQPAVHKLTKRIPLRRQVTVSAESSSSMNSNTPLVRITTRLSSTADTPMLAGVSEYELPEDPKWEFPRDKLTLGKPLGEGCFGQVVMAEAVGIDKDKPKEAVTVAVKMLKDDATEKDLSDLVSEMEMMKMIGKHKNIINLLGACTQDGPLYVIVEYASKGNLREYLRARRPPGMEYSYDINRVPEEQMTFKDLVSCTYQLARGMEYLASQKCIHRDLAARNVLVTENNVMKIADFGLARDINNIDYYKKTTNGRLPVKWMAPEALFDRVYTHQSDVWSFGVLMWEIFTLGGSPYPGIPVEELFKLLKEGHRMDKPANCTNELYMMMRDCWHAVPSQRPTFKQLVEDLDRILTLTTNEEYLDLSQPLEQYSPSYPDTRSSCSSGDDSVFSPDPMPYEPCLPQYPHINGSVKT
The experiment in a line: FGFR wild type enzyme assay (HTRF KinEASE-TK). Format: biochemical. The settings on record: ATP 2 uM. Summed up: (§1)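 Purified intracellular kinase domains, enzyme pre-incubated 30 min with compound (11-point 1:3 dilutions, typically 10,000-0.17 nM), then ATP plus 0.5 uM TK-peptide, 60 min at room temperature in HEPES pH7.5 with Mg2+/Mn2+. HTRF 665/615 ratio converted to percent of control; IC50 from four-parameter logistic fit.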

Another assay concerns the target T2, FGFR2 N549H (Homo sapiens, UniProt P21802, N549H).
T2 construct: biochemical assays using purified intracellular domains of the respective isoforms; purchased Carna Bioscience 08-532
The experiment in a line: FGFR mutant enzyme assay (HTRF KinEASE-TK). Format: biochemical. To be noted: ATP 0.9 uM. Summed up: as §1

In a further assay the target is T3, FGFR2 V564I (Homo sapiens, UniProt P21802, V564I).
T3 construct: biochemical assays using purified intracellular domains of the respective isoforms; purchased Carna Bioscience 08-546
T3 sequence (P21802 399-821 V564I limits assumed): as the sequence (P21802 399-821 limits assumed) above, with V166I counted along it
The assay is described as follows: FGFR mutant enzyme assay (HTRF KinEASE-TK). It counts as biochemical. The settings on record: ATP 0.4 uM. Summed up:
as §1

The target in a further assay is T4, FGFR2 V564F (Homo sapiens, UniProt P21802, V564F).
T4 construct: biochemical assays using purified intracellular domains of the respective isoforms; purchased SignalChem Biotech F05-12FG
T4 sequence (P21802 399-821 V564F limits assumed): as the sequence (P21802 399-821 limits assumed) above, with V166F counted along it
The experiment in a line: FGFR mutant enzyme assay (HTRF KinEASE-TK). Format: biochemical. The settings on record: ATP 1.5 uM. Summed up: as §1

Setting [1] is: compound table after the examples, read-out: Enz FGFR2.

Like-named read-outs stand apart in the source and are kept apart here.

Sequence of FGFR2-WT (P21802 430-767 limits assumed): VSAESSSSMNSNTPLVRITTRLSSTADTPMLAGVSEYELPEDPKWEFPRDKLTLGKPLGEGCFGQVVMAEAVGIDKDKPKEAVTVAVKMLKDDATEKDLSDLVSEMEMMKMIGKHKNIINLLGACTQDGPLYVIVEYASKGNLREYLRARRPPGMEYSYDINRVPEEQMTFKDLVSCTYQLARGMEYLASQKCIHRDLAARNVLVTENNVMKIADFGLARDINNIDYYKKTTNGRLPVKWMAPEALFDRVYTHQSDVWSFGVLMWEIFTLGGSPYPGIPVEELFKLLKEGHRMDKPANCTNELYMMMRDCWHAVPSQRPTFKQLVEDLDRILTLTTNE
T2 sequence (P21802 399-821 N549H limits assumed): as the sequence (P21802 399-821 limits assumed) above, with N151H counted along it

As to `CC[C@@H](Oc1cc(-c2cnn([C@H]3CC[C@H](O)CC3)c2C)cn2ncc(C#N)c12)c1ccc(F)cn1` [Compound 60, 4-((R)-1-(5-fluoropyridin-2-yl)propoxy)-6-(1-((1r,4R)-4-hydroxycyclohexyl)-5-methyl-1H-pyrazol-4-yl)pyrazolo[1,5-a]pyridine-3-carbonitrile], the IC50 against FGFR2-WT is 3.5 nM; on FGFR2 (Table 3, read-out: FGFR2 Enz) it was 0.4 nM; at FGFR2 (setting [1]), 0.4 nM; against FGFR2 N549H, 0.5 nM; at FGFR2 V564I, 2 nM; against FGFR2 V564F, 1.5 nM.

For the compound `Cc1c(-c2cc(O[C@H](C)c3ccc(F)cn3)c3c(C#N)cnn3c2)cnn1[C@H]1CCCC[C@@H]1O` [Compound 61, 4-((R)-1-(5-fluoropyridin-2-yl)ethoxy)-6-(1-((1S,2S)-2-hydroxycyclohexyl)-5-methyl-1H-pyrazol-4-yl)pyrazolo[1,5-a]pyridine-3-carbonitrile], the IC50 was found to be 3 nM at FGFR2-WT; 0.3 nM at FGFR2 (Table 3, read-out: FGFR2 Enz); 0.3 nM on FGFR2 (setting [1]); 0.4 nM against FGFR2 N549H; 1.5 nM against FGFR2 V564I; 1 nM at FGFR2 V564F.

Turning to `Cc1c(-c2cc(O[C@H](C)c3ccc(F)cn3)c3c(C#N)cnn3c2)cnn1[C@@H]1CCCC[C@H]1O` [Compound 62, 4-((R)-1-(5-fluoropyridin-2-yl)ethoxy)-6-(1-((1R,2R)-2-hydroxycyclohexyl)-5-methyl-1H-pyrazol-4-yl)pyrazolo[1,5-a]pyridine-3-carbonitrile], the IC50 came to 48 nM at FGFR2-WT; 7 nM at FGFR2 (Table 3, read-out: FGFR2 Enz); 8 nM on FGFR2 (setting [1]); 9 nM against FGFR2 N549H; 30 nM against FGFR2 V564I; 21.5 nM against FGFR2 V564F.

With `C[C@@H](Oc1cc(-c2ccc(N3CC[C@H](O)[C@@H](O)C3)nc2)cn2ncc(C#N)c12)c1ccc(F)cn1` [Compound 63, 6-(6-((3S,4S)-3,4-dihydroxypiperidin-1-yl)pyridin-3-yl)-4-((R)-1-(5-fluoropyridin-2-yl)ethoxy)pyrazolo[1,5-a]pyridine-3-carbonitrile], the IC50 on FGFR2-WT was 3.3 nM; on FGFR2 (Table 3, read-out: FGFR2 Enz) it was 0.3 nM; at FGFR2 (setting [1]) it was 0.3 nM; against FGFR2 N549H, 0.3 nM; at FGFR2 V564I, 1 nM; on FGFR2 V564F it was 1 nM.

With `C[C@@H](Oc1cc(-c2ccc(N3CC[C@@H](O)[C@H](O)C3)nc2)cn2ncc(C#N)c12)c1ccc(F)cn1` [Compound 64, 6-(6-((3R,4R)-3,4-dihydroxypiperidin-1-yl)pyridin-3-yl)-4-((R)-1-(5-fluoropyridin-2-yl)ethoxy)pyrazolo[1,5-a]pyridine-3-carbonitrile], the IC50 turned out to be 4 nM against FGFR2-WT; 0.3 nM at FGFR2 (Table 3, read-out: FGFR2 Enz); 0.2 nM against FGFR2 N549H; 0.7 nM against FGFR2 V564I; 0.6 nM against FGFR2 V564F.

In the case of `Cc1c(-c2cc(O[C@H](CO)c3ccc(F)cn3)c3c(C#N)cnn3c2)cnn1[C@H]1CC[C@H](O)CC1` [Compound 65, 4-((S)-1-(5-fluoropyridin-2-yl)-2-hydroxyethoxy)-6-(1-((1r,4S)-4-hydroxycyclohexyl)-5-methyl-1H-pyrazol-4-yl)pyrazolo[1,5-a]pyridine-3-carbonitrile], the IC50 at FGFR2-WT worked out at 21 nM; on FGFR2 (Table 3, read-out: FGFR2 Enz), 3 nM; at FGFR2 (setting [1]) it was 3 nM; against FGFR2 N549H, 3.5 nM; against FGFR2 V564I, 10.6 nM; on FGFR2 V564F, 9.5 nM.

In the case of `Cc1c(-c2cc(O[C@@H](CO)c3ccc(F)cn3)c3c(C#N)cnn3c2)cnn1[C@H]1CC[C@H](O)CC1` [Compound 66, 4-((R)-1-(5-fluoropyridin-2-yl)-2-hydroxyethoxy)-6-(1-((1r,4R)-4-hydroxycyclohexyl)-5-methyl-1H-pyrazol-4-yl)pyrazolo[1,5-a]pyridine-3-carbonitrile], the IC50 stood at 793 nM against FGFR2-WT; 105 nM on FGFR2 (Table 3, read-out: FGFR2 Enz); 110 nM at FGFR2 (setting [1]); 106 nM at FGFR2 N549H; 369 nM at FGFR2 V564I; 139 nM on FGFR2 V564F.

`Cc1c(-c2cc(O[C@H](C)c3ccc(F)cn3)c3c(C#N)cnn3c2)cnn1[C@H]1CCC[C@H](O)C1` [Compound 67, 4-((R)-1-(5-fluoropyridin-2-yl)ethoxy)-6-(1-((1S,3S)-3-hydroxycyclohexyl)-5-methyl-1H-pyrazol-4-yl)pyrazolo[1,5-a]pyridine-3-carbonitrile]: the IC50 against FGFR2-WT came to 4 nM; on FGFR2 (Table 3, read-out: FGFR2 Enz), 0.4 nM; at FGFR2 (setting [1]), 0.4 nM; against FGFR2 N549H, 0.4 nM; against FGFR2 V564I, 1.4 nM; at FGFR2 V564F, 1 nM.

`Cc1c(-c2cc(O[C@H](C)c3ccc(F)cn3)c3c(C#N)cnn3c2)cnn1[C@@H]1CCC[C@@H](O)C1` [Compound 68, 4-((R)-1-(5-fluoropyridin-2-yl)ethoxy)-6-(1-((1R,3R)-3-hydroxycyclohexyl)-5-methyl-1H-pyrazol-4-yl)pyrazolo[1,5-a]pyridine-3-carbonitrile]: the IC50 against FGFR2-WT stood at 8 nM; at FGFR2 (Table 3, read-out: FGFR2 Enz), 1 nM; on FGFR2 (setting [1]) it was 1 nM; at FGFR2 N549H it was 1 nM; on FGFR2 V564I, 4 nM; against FGFR2 V564F it was 3 nM.

On to `Cc1c(-c2cc(O[C@@H](c3ccc(F)cn3)C(F)(F)F)c3c(C#N)cnn3c2)cnn1[C@H]1CC[C@H](O)CC1` [Compound 69, 6-(1-((1r,4S)-4-hydroxycyclohexyl)-5-methyl-1H-pyrazol-4-yl)-4-((S)-2,2,2-trifluoro-1-(5-fluoropyridin-2-yl)ethoxy)pyrazolo[1,5-a]pyridine-3-carbonitrile], for which the IC50 was 2 nM at FGFR2-WT; 0.4 nM at FGFR2 (Table 3, read-out: FGFR2 Enz); 0.4 nM at FGFR2 (setting [1]); 1 nM on FGFR2 N549H; 1.6 nM at FGFR2 V564I; 1.6 nM against FGFR2 V564F.

As for `Cc1c(-c2cc(O[C@H](c3ccc(F)cn3)C(F)(F)F)c3c(C#N)cnn3c2)cnn1[C@H]1CC[C@H](O)CC1` [Compound 70, 6-(1-((1r,4R)-4-hydroxycyclohexyl)-5-methyl-1H-pyrazol-4-yl)-4-((R)-2,2,2-trifluoro-1-(5-fluoropyridin-2-yl)ethoxy)pyrazolo[1,5-a]pyridine-3-carbonitrile], the IC50 against FGFR2-WT is 790 nM; on FGFR2 (Table 3, read-out: FGFR2 Enz), 110 nM; at FGFR2 (setting [1]), 110 nM; on FGFR2 N549H, 160 nM; against FGFR2 V564I, 420 nM; at FGFR2 V564F it was 219 nM.

Regarding `Cc1c(-c2cc(O[C@H](C)c3ccc(F)cn3)c3c(C#N)cnn3c2)cnn1[C@H]1CCC[C@@H](O)C1` [Compound 71, 4-((R)-1-(5-fluoropyridin-2-yl)ethoxy)-6-(1-((1S,3R)-3-hydroxycyclohexyl)-5-methyl-1H-pyrazol-4-yl)pyrazolo[1,5-a]pyridine-3-carbonitrile], the IC50 on FGFR2-WT was found to be 4.5 nM; at FGFR2 (Table 3, read-out: FGFR2 Enz), 1 nM; at FGFR2 (setting [1]), 1 nM; on FGFR2 N549H it was 1 nM; against FGFR2 V564I, 3 nM; on FGFR2 V564F it was 2 nM.

`Cc1c(-c2cc(O[C@H](C)c3ccc(F)cn3)c3c(C#N)cnn3c2)cnn1[C@@H]1CCC[C@H](O)C1` [Compound 72, 4-((R)-1-(5-fluoropyridin-2-yl)ethoxy)-6-(1-((1R,3S)-3-hydroxycyclohexyl)-5-methyl-1H-pyrazol-4-yl)pyrazolo[1,5-a]pyridine-3-carbonitrile]: the IC50 against FGFR2-WT worked out at 3 nM; on FGFR2 (Table 3, read-out: FGFR2 Enz), 0.4 nM; at FGFR2 (setting [1]), 0.4 nM; on FGFR2 N549H it was 0.45 nM; against FGFR2 V564I, 1.5 nM; on FGFR2 V564F, 1 nM.
